The results in this text go back to patent US20260327211A1, “MODULATORS OF A POTASSIUM CHANNEL AND OF TRPV1 CHANNEL AND USES THEREOF” (Bsense Bio Therapeutics Ltd., priority 2023, published 2026).

Where two headings read alike, the source gives them in different places.

Holding throughout (format): cell-based
In series [1] the target is T1, hTRPV1 (Homo sapiens, UniProt Q8NER1).
T1 construct: CDS of NM_080704.4, inserted into the multiple cloning site of pcDNA3.1(+); host or cells: CHO/hKv7.2/3
T1 sequence (Q8NER1 whole entry): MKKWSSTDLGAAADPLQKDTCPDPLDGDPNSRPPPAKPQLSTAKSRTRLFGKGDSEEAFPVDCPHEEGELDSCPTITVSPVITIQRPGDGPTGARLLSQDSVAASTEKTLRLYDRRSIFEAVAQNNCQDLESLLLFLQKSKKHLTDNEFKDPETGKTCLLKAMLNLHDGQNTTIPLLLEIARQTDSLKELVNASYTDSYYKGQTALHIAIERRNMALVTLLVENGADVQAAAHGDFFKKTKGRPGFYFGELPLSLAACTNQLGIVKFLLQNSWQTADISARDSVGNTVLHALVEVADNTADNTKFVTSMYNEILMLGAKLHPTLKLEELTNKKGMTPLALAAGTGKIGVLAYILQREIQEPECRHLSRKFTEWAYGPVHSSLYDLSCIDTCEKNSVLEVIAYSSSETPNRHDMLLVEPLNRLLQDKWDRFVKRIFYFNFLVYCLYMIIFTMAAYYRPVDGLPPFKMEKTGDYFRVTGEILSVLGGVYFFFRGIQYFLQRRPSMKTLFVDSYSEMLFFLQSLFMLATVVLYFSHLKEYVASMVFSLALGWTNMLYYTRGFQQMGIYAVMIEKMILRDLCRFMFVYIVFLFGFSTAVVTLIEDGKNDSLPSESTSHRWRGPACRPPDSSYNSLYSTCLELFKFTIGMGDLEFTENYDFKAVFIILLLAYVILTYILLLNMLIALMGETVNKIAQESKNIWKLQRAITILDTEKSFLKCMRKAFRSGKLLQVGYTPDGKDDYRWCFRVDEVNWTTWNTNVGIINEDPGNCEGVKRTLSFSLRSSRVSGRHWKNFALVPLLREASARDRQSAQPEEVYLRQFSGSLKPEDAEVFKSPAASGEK
The experiment in a line: TRPV1 HCS, Fluo-8 calcium flux, capsaicin activation, CHO cells expressing hTRPV1. The procedure:
Cell culture: Chinese hamster ovary (CHO) cell-line cells with constitutive expression of human hTRPV1 channels (B'SYS GmbH, Switzerland) were cultured in F-12 nutrient mixture (Biological Industries) supplemented with 10% fetal bovine serum (Biological Industries) and 1% penicillin-streptomycin (Biological Industries) in a humidified 5% CO2 incubator at 37° C. To maintain the stable expression of hTRPV1, antibiotic selection (G418 500 μg/ml) was applied.
High content screen (HCS) using Fluo-8 No Wash Calcium flux Assay Kit: Fluo-8 No Wash Calcium Assay Kit (Abcam, ab112129) was used with CHO stably or transiently expressing TRPV1 to screen compounds against the hTRPV1 ion channel target. The cells were pre-loaded with Fluo-8AM which is membrane permeable. The AM groups of the Fluo-8AM were then being cleaved by intracellular esterase, trapping the Fluo8 in the cell. […] The relative fluorescence signal was calculated following background subtraction, comparing the fluorescence at each time point to its maximal level measured following Ionomycin application in the end.
According to optimization process to achieve uniform and consistent screening condition of molecules the following protocol was established: Cells were seeded in 384-well, black-walled, clear-bottomed, at a density of 5,000 cells per well 24 h before the assay conductance and incubated overnight in their normal growth medium. On the experiment day the medium was replaced in each well with HBSS, HEPES, and compound/vehicle (0.2% DMSO). Dye solution (prepared according to the manufacturer) was added to the wells and plates are incubated for 1.5 h light-protected in room temperature. The Tecan Spark plate reader injectors were then primed with capsaicin and Ionomycin for channel activation and data normalization, respectively. […] To calculate IC50 values, the data was fitted to sigmoidal regression line using Prism GraphPad. The fitting was constrained to a minimum of 0 and a maximal response of about 1 unless a different maximal response could be identified.
For orientation: A change in cytosolic calcium serves as a functional read-out for many receptors and channels.

For the next series, the target named is T2, hKv7.2/3 (Homo sapiens, UniProt O43525+O43526).
T2 construct: host or cells: CHO
T2 sequence (O43525 whole entry): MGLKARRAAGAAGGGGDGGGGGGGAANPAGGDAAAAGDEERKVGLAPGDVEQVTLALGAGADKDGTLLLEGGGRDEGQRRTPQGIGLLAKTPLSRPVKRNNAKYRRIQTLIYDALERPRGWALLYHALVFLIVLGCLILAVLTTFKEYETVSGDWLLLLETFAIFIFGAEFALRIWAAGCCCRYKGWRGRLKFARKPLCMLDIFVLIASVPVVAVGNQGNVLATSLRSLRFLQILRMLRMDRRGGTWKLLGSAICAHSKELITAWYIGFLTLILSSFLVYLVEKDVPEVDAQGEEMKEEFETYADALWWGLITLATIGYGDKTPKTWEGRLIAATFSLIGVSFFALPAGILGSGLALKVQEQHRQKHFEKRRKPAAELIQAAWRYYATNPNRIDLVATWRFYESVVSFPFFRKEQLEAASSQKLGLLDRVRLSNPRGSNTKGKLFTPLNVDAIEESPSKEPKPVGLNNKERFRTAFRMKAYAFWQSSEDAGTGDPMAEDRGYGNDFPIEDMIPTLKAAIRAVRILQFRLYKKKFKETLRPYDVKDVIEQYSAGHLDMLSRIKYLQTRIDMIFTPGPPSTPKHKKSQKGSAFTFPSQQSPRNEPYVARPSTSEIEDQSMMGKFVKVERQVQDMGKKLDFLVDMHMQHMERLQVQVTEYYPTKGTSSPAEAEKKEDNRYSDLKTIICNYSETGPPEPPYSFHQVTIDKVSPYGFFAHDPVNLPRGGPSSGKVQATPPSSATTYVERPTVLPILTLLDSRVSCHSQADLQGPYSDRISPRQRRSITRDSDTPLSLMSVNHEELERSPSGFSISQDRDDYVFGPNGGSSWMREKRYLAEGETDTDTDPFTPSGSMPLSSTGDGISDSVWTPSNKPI
T2 sequence (O43526 whole entry): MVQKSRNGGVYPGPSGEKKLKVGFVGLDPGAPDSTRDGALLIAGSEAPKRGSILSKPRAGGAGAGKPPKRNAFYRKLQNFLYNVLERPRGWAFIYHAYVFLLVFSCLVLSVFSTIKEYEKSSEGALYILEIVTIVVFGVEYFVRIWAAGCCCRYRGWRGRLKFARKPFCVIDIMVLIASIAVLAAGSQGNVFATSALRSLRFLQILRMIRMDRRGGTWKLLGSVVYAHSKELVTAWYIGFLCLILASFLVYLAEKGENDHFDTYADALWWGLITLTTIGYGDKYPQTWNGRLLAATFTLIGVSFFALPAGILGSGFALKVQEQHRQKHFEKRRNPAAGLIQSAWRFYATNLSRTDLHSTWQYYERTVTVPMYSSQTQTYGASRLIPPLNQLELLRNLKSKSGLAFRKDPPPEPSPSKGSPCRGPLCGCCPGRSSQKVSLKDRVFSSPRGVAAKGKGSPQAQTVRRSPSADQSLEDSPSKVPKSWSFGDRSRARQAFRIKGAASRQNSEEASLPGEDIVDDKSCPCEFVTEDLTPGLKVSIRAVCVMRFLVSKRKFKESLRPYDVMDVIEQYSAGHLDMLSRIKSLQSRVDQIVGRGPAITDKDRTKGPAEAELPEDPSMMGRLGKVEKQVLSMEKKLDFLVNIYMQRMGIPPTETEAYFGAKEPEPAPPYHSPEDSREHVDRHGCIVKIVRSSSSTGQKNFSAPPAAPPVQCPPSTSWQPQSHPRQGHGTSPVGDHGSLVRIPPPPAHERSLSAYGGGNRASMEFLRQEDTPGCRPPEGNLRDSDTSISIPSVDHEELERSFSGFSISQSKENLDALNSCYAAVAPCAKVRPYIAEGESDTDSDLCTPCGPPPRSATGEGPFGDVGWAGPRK
Put plainly: Kv7.2/7.3 HCS, FLIPR potassium (thallium) assay, CHO/hKv7.2/3. The procedure: Cell culture: Chinese hamster ovary (CHO) cell-line cells with a constitutive expression of human Kv7.2/3 channels (B'SYS GmbH, Switzerland) were cultured in F-12 nutrient mixture (Biological Industries) supplemented with 10% fetal bovine serum (Biological Industries) and 1% penicillin-streptomycin (Biological Industries) in a humidified 5% CO2 incubator at 37° C. To maintain the stability of human Kv7.2/7.3 expression antibiotic selection was added (Puromycin 5 μg/ml).
High content screen (HCS) using FLIPR Potassium Assay Kit: A FLIPR Potassium Assay Kit (R8222 FLIPR Potassium Assay Explorer Kits, Molecular Devices) was used with the CHO/hKv7.2/3 cell line to screen molecules against the hKv7.2/7.3 ion channel target. The assay exploits the permeability of thallium ions (Tl+) through potassium (K+) channels. In this assay, Tl+ indicator dye is used to produce a bright fluorescent signal upon the binding to Tl+ conducted through the potassium channels. The intensity of the Tl+ signal is proportional to the number of potassium channels in the open state. Therefore, it provides a functional indication of the potassium channel activity. To activate the voltage-gate potassium channels, the cells were stimulated with a mixture of K+ and Tl+ to depolarize the cell membrane. The fluorescence increase in the assay represents the influx of Tl+ into the cell specifically through the potassium channel, providing a functional read-out of hKv7.2/3 activity using a fluorescent plate reader coupled with injectors used to activate the channels.
According to optimization process to achieve uniform and consistent screening conditions the following protocol was established: Cells were seeded in 384-well, black-walled, clear-bottomed Greiner #781091, at a density of 5000 cells per well 24 hours before the assay conductance and incubated overnight in their normal growth medium. On the experiment day the medium was replaced with HBSS, HEPES, and the test compound/vehicle (0.2% DMSO). Dye solution (prepared according to the manufacturer) was added to the plates, which were incubated for 1.5 h light-protected in room temperature. Tecan Spark reader plate injectors were primed with Tl+(1 mM Tl2SO4) or Tl++K+(1 mM Tl2SO4; 5 mM K2SO4) for channel activation and data correction. […] To calculate EC50 values, the data was fitted to sigmoidal regression using Prism GraphPad. The fitting was constrained to a minimum of 1 and a maximal response of about 3.6 unless a different maximal response could be clearly identified.

Series [2] has as its system rat DRG neurons. Put plainly: Rat DRG neurons, capsaicin-evoked action potential firing. The note with it: for Inhibition of capsaicin induced AP response: 100 nM. The source says: (§1) rDRGs isolation and primary cell culture: Briefly, rat DRGs from all spinal levels were carefully removed and collected in HBSS on ices, connective tissue of the epineurium surrounding the ganglion was removed and cells were dissociated using Collagenase-II and trypsin dissociation solutions. DRGs were dissociated further, passed through glass Pasteur pipettes to obtain single cells. Then dissociation solution was changed to 5% FBS containing DRG neuronal culture medium and plated onto ECL coated 12 mm cover glass.
(§2) Additional rDRGs experiments were performed using Lonza primary neonatal rat (Sprague Dawley neonatal; P2,3) DRG neurons (R-DRG-505, Lonza) plated and cultured according to the manufacturer.
(§3) Electrophysiology: Cells were used for electrophysiological recording at least 48 hours following rDRG isolation or at least 5 days following cryopreserved rDRG thawing. Round small neurons (20-40 μm in diameter) were selected for electrophysiology recordings, to select for small nociceptive neurons that propagate pain sensation in vivo and that are expressing both Kv7.2/3 and TRPV1 targets. Membrane excitability was monitored using current clamp configuration of the whole-cell patch-clamp technique. Positive current steps of different amplitude were injected (400 ms) to induce spikes trains before and following compound application.
To assess the potency of compounds using DRG neurons, the inhibitory potency for CAP-evoked action potential (AP) trains was measured. For this purpose, DRG membrane potential was continuously measured, and the following protocol was performed:
Cells were perfused with vehicle containing bath solution. After 30 seconds, CAP (1 μM) was applied for 6 seconds to activate TRPV1 and stimulate AP trains.
After 30 seconds of perfusion with bath solution containing only vehicle, perfusion was changed to a bath solution containing compound, and after 3 minutes of compound application, CAP (1 μM) was applied again for 6 seconds to activate TRPV1 and stimulate AP trains.
Cells perfusion was changed back to bath solution containing only vehicle and after 3 minutes of compound washout, CAP (1 μM) was applied again for 6 seconds to activate TRPV1 and stimulate AP trains.
To evaluate the drug/control response, the number of AP spikes induced by CAP following incubation with test compound was divided by the average number of control AP spikes induced without compound, before compound incubation, and following its washout.

Series [3] has as its system rat DRG neurons. The experiment in a line: Rat DRG neurons, current-evoked action potential firing. Conditions: for Inhibition of current induced AP response: 100 nM.
Text: as §1, §2, §3

The target in the next series is hERG (Homo sapiens, UniProt Q12809). The experiment in a line: hERG HCS, FLIPR potassium assay, CHO/hERG. The arrangement: host or cells: CHO. The note with it: at highest concentration shown, Table 1. The procedure:
Cell culture: Chinese hamster ovary (CHO) cell-line cells with a constitutive expression of human hERG channels (B'SYS GmbH, Switzerland) were cultured in F-12 nutrient mixture (Biological Industries) supplemented with 10% fetal bovine serum (Biological Industries) and 1% penicillin-streptomycin (Biological Industries) in a humidified 5% CO2 incubator at 37° C. To maintain the hERG expression stability of the CHO cell line, antibiotics selection (G418 […] and Hygromycin 500) was applied.
FLIPR Potassium Assay Kit: The FLIPR Potassium Assay Kit (R8222 FLIPR Potassium Assay Explorer Kits, Molecular Devices) was used with CHO/hERG cell line, for screening compounds against the hERG ion-channel off-target, as detailed hereinabove.
According to optimization process, to achieve a uniform and consistent screening condition of molecules, the following protocol was established: Cells were seeded in 384-well, black-walled, clear-bottomed, at a density of 7,500 cells per well 24 hours before the assay conductance and incubated overnight in their normal growth medium. On the experiment day the medium was replaced with HBSS, HEPES, and the tested compound/vehicle (0.2% DMSO). Dye solution (prepared according to the manufacturer) was added to the wells and plates were incubated for 1.5 hour light-protected in room temperature. The Tecan Spark plate-reader injectors were primed with Tl+(1 mM Tl2SO4) or Tl++K+(1 mM Tl2SO4; 10 mM K2SO4) for channel activation and data correction. […]. To calculate IC50 values, the data was fitted to sigmoidal regression using Prism GraphPad.

The target in series [4] is T1, hTRPV1. Put plainly: hTRPV1 dual activity electrophysiology, CHO cells co-expressing hKv7.2/3 and hTRPV1. Conditions: with hKv7.2/3 activation. The procedure:
Cell culture and DNA transfection: CHO/hKv7.2/3 cells were transfected with hTRPV1 DNA constructs (CDS of NM_080704.4, inserted into the multiple cloning site of pcDNA3.1(+) between the Hind III and BamH I restriction site, Genscript). For CHO transfection, 1×10^6 cells were suspended in a reaction mix (Amaxa™ 4D-Nucleofector™-LONZA) containing 5 μg of hTRPV1 DNA and 0.5 μg of GFP DNA (for cells selection) in a cuvette.
The cells were transformed (Amaxa, DT-133 program for CHO transfection with p-3 Kit) and recovered for 10 minutes at RT in the hood. Then cells were re-suspended in a 10 mL antibiotic (Ab)-free medium suspension and were plated on Gelatin or PLL-coated cover glass in different cell densities. On the next morning, the medium was changed to full medium containing the CHO/hKv7.2/3 cell line selection antibiotics.
Extracellular (Bath) solution: The solution was composed of (in mM): NaCl, 140; KCl, 4; CaCl2, 1.8; MgCl2, 1.2; Glucose, 11; HEPES, 5.5. pH was adjusted to 7.3 with NaOH. Osmolarity was adjusted to 310 mOsm with Sucrose.
Intracellular (Pipette) solution: Pipettes were pulled from borosilicate glass (Warner Instrument Corp, USA) with a resistance of 3-7 MΩ and were filled with internal solution composed of (in mM): KCl, 130; MgCl2, 1; K ATP, 5; EGTA, 5; HEPES, 10. pH was adjusted to 7.3 with KOH. Osmolarity was adjusted to 290 mOsm with Sucrose.
A programmable valve-linked pressurized perfusion system was used for local application of compounds nearby the cell recorded in a consistent flow rate of 2-3 mL/minute. Series resistance was corrected and data were sampled at 5 kHz and low pass filtered at 2.4 kHz using MultiClamp 700B amplifier with pCLAMP11 software (Molecular Devices, USA).
At least 48 hours following cell transfection and plating, cells were recorded to assess the TRPV1 dual activity. Membrane potential was held at −90 mV. To measure the inhibitory effects of the tested compounds on hTRPV1 dual activity the following protocol was performed:
Cells were perfused with vehicle-only containing bath solution. After 30 seconds, a single −40 mV 1.5 second step was applied for Kv7.2/3 activation and 30 seconds later capsaicin (1 μM) was applied for 6 seconds to activate the TRPV1.
Cells perfusion was changed to a compound-containing bath solution, and after 2 minutes and 30 seconds of compound application, a single −40 mV 1.5 second step was applied for Kv7.2/3 activation and 30 seconds later capsaicin (1 μM) was applied for 6 seconds to activate the TRPV1.
Cells perfusion was thereafter changed back to vehicle only-containing bath solution. After 30 seconds, a single −40 mV 1.5 step was applied for Kv7.2/3 activation and 30 seconds later capsaicin (1 μM) was applied for 6 seconds to activate the TRPV1 followed by a capsaicin wash out.
The drug current response, when capsaicin was injected following 3 minutes of pre-incubation with the test compound, was divided by the averaged control currents, induced without compound, before compound incubation and following its washout, to evaluate the drug/control response.

Sequence of hERG (Q12809 whole entry): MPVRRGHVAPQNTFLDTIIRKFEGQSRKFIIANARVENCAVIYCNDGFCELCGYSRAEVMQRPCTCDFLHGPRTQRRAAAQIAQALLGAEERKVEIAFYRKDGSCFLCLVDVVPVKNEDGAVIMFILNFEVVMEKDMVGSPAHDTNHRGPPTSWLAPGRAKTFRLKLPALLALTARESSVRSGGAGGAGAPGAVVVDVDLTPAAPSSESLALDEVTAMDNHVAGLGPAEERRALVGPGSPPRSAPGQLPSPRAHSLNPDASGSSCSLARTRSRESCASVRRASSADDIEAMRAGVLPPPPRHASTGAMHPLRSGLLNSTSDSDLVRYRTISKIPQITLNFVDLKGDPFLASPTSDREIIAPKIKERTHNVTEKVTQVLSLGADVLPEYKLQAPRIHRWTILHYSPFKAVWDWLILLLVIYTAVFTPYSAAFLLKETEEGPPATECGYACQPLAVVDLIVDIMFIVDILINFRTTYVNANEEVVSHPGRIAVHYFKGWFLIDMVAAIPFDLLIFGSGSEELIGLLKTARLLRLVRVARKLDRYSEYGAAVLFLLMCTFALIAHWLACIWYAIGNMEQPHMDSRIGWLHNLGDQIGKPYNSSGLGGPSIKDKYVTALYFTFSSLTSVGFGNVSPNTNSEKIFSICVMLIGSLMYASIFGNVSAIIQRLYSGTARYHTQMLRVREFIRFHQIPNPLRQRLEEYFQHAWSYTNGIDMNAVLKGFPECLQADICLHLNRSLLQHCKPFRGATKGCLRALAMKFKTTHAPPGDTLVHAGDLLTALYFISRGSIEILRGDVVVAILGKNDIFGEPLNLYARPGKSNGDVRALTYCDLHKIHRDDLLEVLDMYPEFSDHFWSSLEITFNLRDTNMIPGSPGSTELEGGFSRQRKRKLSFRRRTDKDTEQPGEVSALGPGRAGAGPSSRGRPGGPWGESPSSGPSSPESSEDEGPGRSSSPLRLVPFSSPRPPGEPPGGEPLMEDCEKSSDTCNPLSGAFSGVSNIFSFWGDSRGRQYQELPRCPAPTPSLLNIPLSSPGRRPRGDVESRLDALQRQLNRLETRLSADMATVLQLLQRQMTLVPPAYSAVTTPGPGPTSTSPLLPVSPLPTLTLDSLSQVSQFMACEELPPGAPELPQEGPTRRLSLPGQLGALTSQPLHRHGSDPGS

Regarding `CC(C)c1cc(Cl)cc(Cl)c1C(O)c1ccc(F)c(CC(=O)NCC2(O)CCC2)c1` (single isomer, unassigned) [Compound 533p2], the entries for the “TRPV1 modulation (words)” value on hTRPV1 [1] and on hTRPV1 [1] (listed as 533P2) were “activates hTRPV1” and “activating TRPV1”, respectively. Further, the figures for the “Kv7.2/3 activation (words)” value at hKv7.2/3 and at hKv7.2/3 (listed as 533P2) were “higher” and “more potent activation of Kv7.2/3”, respectively. Also, the “Inhibition of capsaicin induced AP response” value is given as “facilitated” in the series on rat DRG neurons [2] (0.1 µM) and “potentiates capsaicin induced AP” in the series on rat DRG neurons [2] (listed as 533P2, 0.1 µM). The “Inhibition of current induced AP response” value in the series with rat DRG neurons [3] (0.1 µM) is on record as “inhibits the current-evoked rat DRGs spiking”; with rat DRG neurons [3] (listed as 533P2, 0.1 µM), “inhibits current induced AP”.

As for `CC(C)c1cc(Cl)cc(Cl)c1C(O)c1ccc(F)c(CC(=O)NCC2(O)CCC2)c1` (racemic) [Compound 533 racemic], on hKv7.2/3 (Table 1, read-out: Kv7.2/7.3 IC50), the EC50 was found to be 1.5 µM. The “Inhibition of capsaicin induced AP response” value in the series on rat DRG neurons [2] is on record as “highly potentiating capsaicin induced AP inhibition”. Moreover, the “Inhibition of current induced AP response” value in the series with rat DRG neurons [3] was “reduced current induced AP inhibition”. Moreover, the “hERG IC50 (inhibition in parentheses)” value at hERG worked out at 0%.

Turning to `CC(C)(C)c1ccc(/C=C/C(=O)Nc2ccc3c(c2)OCCO3)cc1` [AMG9810, reference compound], the “hTRPV1 inhibition potency, Kv7.2/3 co-expressed and activated” value on hTRPV1 [4] is recorded as “failure to gain TRPV1-inhibition potency”. Moreover, the “Inhibition of capsaicin evoked firing” value in the series with rat DRG neurons [2] (50 nM) was “about 50%”. Moreover, the Current evoked response entry with rat DRG neurons [3] (50 nM) is “remains unchanged”.
